Test results published in patent EP0542371A1, “Saccharin derivative proteolytic enzyme inhibitors” (STERLING WINTHROP INC., priority 1991, dated 1993).

Tests used:
[1] = pKa by ultraviolet spectrophotometric determination in water; assay type: physicochemical
[2] = pKa determination by titration in water; assay type: physicochemical
[3] = target: T1, human leukocyte elastase (Homo sapiens, UniProt P08246); assay: Inhibition of human leukocyte elastase, in vitro (Ki* = koff/kon); assay type: biochemical; details: Ki* = koff/kon (rate of reactivation divided by rate of inactivation of the enzyme); calculated from measured koff and kon
T1 sequence (P08246 30-267): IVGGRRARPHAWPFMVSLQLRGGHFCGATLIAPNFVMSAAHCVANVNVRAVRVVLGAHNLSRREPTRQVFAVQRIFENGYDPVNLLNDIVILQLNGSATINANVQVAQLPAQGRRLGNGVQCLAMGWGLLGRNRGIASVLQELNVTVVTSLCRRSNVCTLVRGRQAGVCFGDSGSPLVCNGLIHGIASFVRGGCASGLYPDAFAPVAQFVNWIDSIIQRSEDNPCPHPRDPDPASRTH
Description: Ki*, which is defined as the rate of reactivation of the enzyme divided by the rate of inactivation of the enzyme (koff/on), was therefore determined instead. The values of koff and kon were measured and Ki* was then calculated.
The value of kon was determined by measuring the enzyme activity of an aliquot of the enzyme as a function of the time after addition of the test compound (inhibitor). […] The value of kon was then obtained by the equation kon = kobs[I] wherein [I] is the concentration of the inhibitor. The value of koff was similarly determined, and Ki* was then obtained by the equation Ki* = koff/kon.

Structure (SMILES)	pKa [1]	pKa [2]	Ki [3]
NC(=O)c1nn[nH]c1C(N)=O [1,2,3-triazole-4,5-dicarboxamide]	5.3		
COC(=O)c1nn[nH]c1C(=O)OC [1,2,3-triazole-4,5-dicarboxylic acid dimethyl ester]		4.4	
N#Cc1nn[nH]c1C#N [1,2,3-triazole-4,5-dinitrile]		1.6	
Sc1nnnn1-c1ccccc1 [1-phenyltetrazole-5-thiol]	2.9		
COc1cc(C(C)C)c2c(c1)S(=O)(=O)N(Cn1nnc(S(=O)(=O)C(C)(C)C)c1S(=O)(=O)C(C)(C)C)C2=O [Example 1, 2-[4,5-di(t-butylsulfonyl)-1,2,3-triazol-1-yl]methyl-4-isopropyl-6-methoxysaccharin]			24 pM
COc1cc(C(C)C)c2c(c1)S(=O)(=O)N(COC(=O)c1c(Cl)ccc(OCCN3CCOCC3)c1Cl)C2=O [Example 2, 2-{2,6-dichloro-3-[2-(4-morpholinylethoxy)]benzoyloxymethyl}-4-isopropyl-6-methoxysaccharin]			14 pM
